In ChEMBL document CHEMBL1158341, “A macrolactone from benzo[a]phenazine with potent activity against Mycobacterium tuberculosis” (2009):
Values after ≈ are worked out from the molar mass of the structure shown. Active and inactive are the calls of the source. No cut-off for these calls is given here.

How the values were obtained:
[1] = tested on: Mycobacterium tuberculosis; assay: Antimycobacterial activity against Mycobacterium tuberculosis H37Rv ATCC 27294 at 100 ug/mL after 24 hrs by microplate alamar blue assay; assay type: functional
[2] = tested on: Mycobacterium tuberculosis; assay: Antimycobacterial activity against Mycobacterium tuberculosis H37Rv ATCC 27294 after 24 hrs by microplate alamar blue assay; assay type: functional

| SMILES | inhibition at 100 µg/mL [1] [%] | MIC [2] |
| --- | --- | --- |
| CC1(C)OC(=O)c2ccccc2-c2c(nc3ccccc3[n+]2[O-])C(=O)CC1Br (stereo unspecified) | 90 | 25 µg/mL (≈ 56.7 µM) |
| CO[C@H]1/C=C/O[C@@]2(C)Oc3c(C)c(O)c4c(O)c(c(/C=N/N5CCN(C)CC5)c(O)c4c3C2=O)NC(=O)/C(C)=C\C=C\[C@H](C)[C@H](O)[C@@H](C)[C@@H](O)[C@@H](C)[C@H](OC(C)=O)[C@@H]1C [RIFAMPIN] | – | 1 µg/mL (≈ 1.22 µM) |
| CC1(C)CC(=O)c2nc3ccccc3nc2-c2ccccc2C(=O)O1 | 90 | 100 µg/mL (≈ 301 µM) |
| CC1(C)CCC(=O)c2nccnc2-c2ccccc2C(=O)O1 | 90 | 50 µg/mL (≈ 169 µM) |
| CC(C)(O)CCCC1(O)C(=O)c2ccccc2-c2nc3ccccc3nc21 (stereo unspecified) | 90 | inactive |
| CC1(C)CCC(=O)c2nc3ccccc3nc2-c2ccccc2C(=O)O1 | 90 | 0.62 µg/mL (≈ 1.79 µM) |
